Laboratory results published in PMC8964029 (Pharmaceutical Research, 2022).
Like-named read-outs stand apart in the source and are kept apart here. Blank lines part the entries; values can stand above or below the compound they belong to.

Legend:
[1] = format: in vivo, human; settings: for AUC0-24h, ratio of geometric mean (95% CI) / Cmax, ratio of geometric mean (95% CI) / Cmin, ratio of geometric mean (95% CI): erlotinib 75 mg QD + ritonavir 200 mg QD versus erlotinib monotherapy 150 mg QD; for Cmax / Cmin (trough concentration) / AUC0-24h: steady state, geometric mean (CV%)
[2] = cited from earlier work
CYP3A4 = settings: remaining part by CYP1A2; cited from earlier work
[3] = healthy volunteers, co-administration of ketoconazole; cited from earlier work
[4] = Treatment-related adverse events graded according to CTCAE version 5.0; format: in vivo, human; settings: nine patients
[5] = plasma, erlotinib 75 mg QD + ritonavir 200 mg QD
[6] = plasma, erlotinib monotherapy 150 mg QD
[7] = versus erlotinib monotherapy, result in words
[8] = erlotinib 75 mg QD + ritonavir 200 mg QD
[9] = erlotinib monotherapy 150 mg QD

- AUC0-24h, ratio of geometric mean (95% CI) [1]: 0.53 (0.34 – 0.83)
- Cmax, ratio of geometric mean (95% CI) [1]: 0.48 (0.31 – 0.76)
- Cmin, ratio of geometric mean (95% CI) [1]: 0.59 (0.37 – 0.94)
- Cmax [1, 5]: 43.7 (134%) ng/mL
- Cmin (trough concentration) [1, 5]: 29.4 (263%) ng/mL
- AUC0-24h ([1]; plasma, erlotinib 75 mg QD + ritonavir 200 mg QD, nine patients): 0.823 (174%) μg*h/mL
- Cmax [1, 6]: 90.0 (107%) ng/mL
- Cmin (trough concentration) [1, 6]: 49.5 (152%) ng/mL
- AUC0-24h ([1]; plasma, erlotinib monotherapy 150 mg QD, nine patients): 1.55 (120%) μg*h/mL
- Change in AUC0-24h following the combination of erlotinib and ritonavir [1, 7]: statistically significant decrease
- Change in Cmax following the combination of erlotinib and ritonavir [1, 7]: statistically significant decrease
Compound: C#Cc1cccc(Nc2ncnc3cc(OCCO)c(OCCOC)cc23)c1 [OSI-413]

- Cmin (trough concentration) [1, 5]: 0.243 (129%) μg/mL
Compound: CC(C)c1nc(CN(C)C(=O)N[C@H](C(=O)N[C@@H](Cc2ccccc2)C[C@H](O)[C@H](Cc2ccccc2)NC(=O)OCc2cncs2)C(C)C)cs1 [Ritonavir, ritonavir]

- AUC(0-t) ([1]; human, plasma, oral, 150 mg): 29300 ng·h/mL
- Cmin (trough concentration) [1, 5]: 1.06 (165%) μg/mL
- Cmin (trough concentration) ([1]; plasma, erlotinib 75 mg QD + ritonavir 200 mg QD, listed as erlotinib): 1.06 µg/mL
- Cmax [1, 6]: 1.84 (60%) μg/mL
- Cmin (trough concentration) [1, 6]: 1.00 (62%) μg/mL
Compound: C#Cc1cccc(Nc2ncnc3cc(OCCOC)c(OCCOC)cc23)c1 [Erlotinib, erlotinib]
- elimination half-life [2]: approximately 36 h
- Share of erlotinib metabolized by CYP3A4 (CYP3A4): approximately 70%
- Increase of AUC0-∞ of erlotinib by ketoconazole [3]: approximately a twofold
- Increase of Cmax of erlotinib by ketoconazole [3]: approximately a twofold
- Patients experiencing treatment-related adverse events ([4]; combination of erlotinib with ritonavir): 56%
- Diarrhea grade 1 or 2, number of patients [4, 8]: 2
- Diarrhea ≥ grade 3, number of patients [4, 8]: 0
- Nausea grade 1 or 2, number of patients [4, 8]: 2
- Nausea ≥ grade 3, number of patients [4, 8]: 0
- Number of patients experiencing any AE [4, 8]: 5
- Skin rash grade 1 or 2, number of patients [4, 8]: 1
- Skin rash ≥ grade 3, number of patients [4, 8]: 0
- Diarrhea grade 1 or 2, number of patients [4, 9]: 2
- Diarrhea ≥ grade 3, number of patients [4, 9]: 0
- Nausea grade 1 or 2, number of patients [4, 9]: 0
- Nausea ≥ grade 3, number of patients [4, 9]: 0
- Number of patients experiencing any AE [4, 9]: 4
- Skin rash grade 1 or 2, number of patients [4, 9]: 3
- Skin rash ≥ grade 3, number of patients [4, 9]: 0
- Patients with a treatment-related adverse event ([4]; monotherapy erlotinib): 44%

- AUC0-24h, ratio of geometric mean (95% CI) [1]: 0.31 (0.15 – 0.62)
- Cmax, ratio of geometric mean (95% CI) [1]: 0.28 (0.13 – 0.57)
- Cmin, ratio of geometric mean (95% CI) [1]: 0.41 (0.22 – 0.76)
- AUC0-24h [1, 5]: 118 (351%) ng*h/mL
- Cmax [1, 5]: 7.24 (230%) ng/mL
- Cmin (trough concentration) [1, 5]: 4.34 (443%) ng/mL
- AUC0-24h [1, 6]: 380 (144%) ng*h/mL
- Cmax [1, 6]: 26.1 (141%) ng/mL
- Cmin (trough concentration) [1, 6]: 10.5 (162%) ng/mL
- Change in AUC0-24h following the combination of erlotinib and ritonavir [1, 7]: statistically significant decrease
- Change in Cmax following the combination of erlotinib and ritonavir [1, 7]: statistically significant decrease
- Change in Cmin following the combination of erlotinib and ritonavir [1, 7]: statistically significant decrease
Compound: OSI-420
